From ChEMBL document CHEMBL1144308, “Novel CDK inhibition profiles of structurally varied 1-aza-9-oxafluorenes” (Bioorg Med Chem Lett, 2005)

What was measured:
Type in all cases: protein-complex assay
[1] = molecular target: T1, Cyclin-dependent kinase 2/cyclin E1 (Homo sapiens, UniProt P24941); assay: Inhibitory concentration tested against Cyclin dependant kinase 2-cyclinE; ND: not determined
[2] = molecular target: T2, Cyclin-dependent kinase 4/cyclin D1 (Homo sapiens, UniProt P11802); assay: Inhibitory concentration tested against Cyclin dependant kinase 4-cyclinD1; ND: not determined
T2 sequence (P11802 whole entry): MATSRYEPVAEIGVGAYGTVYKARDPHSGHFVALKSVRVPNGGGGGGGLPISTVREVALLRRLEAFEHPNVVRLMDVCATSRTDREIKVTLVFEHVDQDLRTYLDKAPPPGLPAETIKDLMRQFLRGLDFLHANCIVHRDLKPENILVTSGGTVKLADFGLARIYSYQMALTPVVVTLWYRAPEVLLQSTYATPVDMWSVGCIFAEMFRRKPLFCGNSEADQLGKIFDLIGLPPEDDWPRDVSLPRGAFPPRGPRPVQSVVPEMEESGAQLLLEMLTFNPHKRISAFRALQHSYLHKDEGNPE
T2 sequence (P24385 whole entry, further chain): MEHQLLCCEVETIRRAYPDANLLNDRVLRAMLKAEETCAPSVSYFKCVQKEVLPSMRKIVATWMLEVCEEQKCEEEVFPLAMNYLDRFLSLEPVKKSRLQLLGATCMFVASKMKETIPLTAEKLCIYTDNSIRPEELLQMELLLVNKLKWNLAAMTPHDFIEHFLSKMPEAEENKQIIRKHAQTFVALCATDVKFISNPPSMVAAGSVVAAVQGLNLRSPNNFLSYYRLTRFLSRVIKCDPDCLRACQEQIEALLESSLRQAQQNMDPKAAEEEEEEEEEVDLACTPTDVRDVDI

[3] = molecular target: Cyclin-dependent kinase 1/cyclin B1 (Homo sapiens, UniProt P06493); assay: Inhibitory concentration tested against Cyclin dependant kinase 1-cyclinB
Sequence of Cyclin-dependent kinase 1/cyclin B1 (P06493 whole entry): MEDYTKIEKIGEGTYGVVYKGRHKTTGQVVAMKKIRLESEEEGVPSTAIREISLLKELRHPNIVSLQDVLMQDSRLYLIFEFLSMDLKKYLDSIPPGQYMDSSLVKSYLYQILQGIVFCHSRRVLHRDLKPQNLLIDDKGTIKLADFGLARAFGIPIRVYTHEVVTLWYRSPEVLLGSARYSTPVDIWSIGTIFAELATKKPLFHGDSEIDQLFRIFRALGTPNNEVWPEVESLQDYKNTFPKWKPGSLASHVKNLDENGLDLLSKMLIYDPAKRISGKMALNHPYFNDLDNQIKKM
Sequence of Cyclin-dependent kinase 1/cyclin B1 (P14635 whole entry, further chain): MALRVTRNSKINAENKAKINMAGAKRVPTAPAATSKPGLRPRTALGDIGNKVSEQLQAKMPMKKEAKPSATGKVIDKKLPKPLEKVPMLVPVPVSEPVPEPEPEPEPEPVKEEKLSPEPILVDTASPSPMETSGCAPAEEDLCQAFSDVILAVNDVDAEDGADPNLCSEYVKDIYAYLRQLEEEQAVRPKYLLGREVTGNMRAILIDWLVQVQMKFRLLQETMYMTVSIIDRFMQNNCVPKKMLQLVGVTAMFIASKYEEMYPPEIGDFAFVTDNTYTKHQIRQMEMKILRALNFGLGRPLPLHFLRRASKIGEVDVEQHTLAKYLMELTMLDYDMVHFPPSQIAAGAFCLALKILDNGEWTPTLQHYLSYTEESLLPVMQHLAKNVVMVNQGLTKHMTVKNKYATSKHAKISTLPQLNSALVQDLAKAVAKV

[4] = molecular target: T2, Cyclin-dependent kinase 4/cyclin D1; assay: Inhibitory concentration tested against Cyclin dependant kinase 4-cyclinD1
[5] = molecular target: T1, Cyclin-dependent kinase 2/cyclin E1; assay: Inhibitory concentration tested against Cyclin dependant kinase 2-cyclinE
[6] = molecular target: Cyclin-dependent kinase 5/CDK5 activator 1 (Homo sapiens, UniProt Q00535+Q15078); assay: Inhibitory concentration tested against Cyclin-dependent kinase 5; NA: not active
Sequence of Cyclin-dependent kinase 5/CDK5 activator 1 (Homo sapiens, UniProt Q00535+Q15078) (Q00535 whole entry): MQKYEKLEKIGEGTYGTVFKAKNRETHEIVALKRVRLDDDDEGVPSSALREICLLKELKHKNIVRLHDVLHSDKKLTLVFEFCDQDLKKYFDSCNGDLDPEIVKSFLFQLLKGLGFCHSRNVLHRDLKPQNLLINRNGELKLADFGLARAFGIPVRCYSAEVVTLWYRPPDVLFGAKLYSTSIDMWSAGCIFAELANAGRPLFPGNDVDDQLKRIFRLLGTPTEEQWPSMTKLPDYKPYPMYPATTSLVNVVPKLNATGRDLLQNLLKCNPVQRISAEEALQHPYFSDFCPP
Sequence of Cyclin-dependent kinase 5/CDK5 activator 1 (Homo sapiens, UniProt Q00535+Q15078) (Q15078 whole entry): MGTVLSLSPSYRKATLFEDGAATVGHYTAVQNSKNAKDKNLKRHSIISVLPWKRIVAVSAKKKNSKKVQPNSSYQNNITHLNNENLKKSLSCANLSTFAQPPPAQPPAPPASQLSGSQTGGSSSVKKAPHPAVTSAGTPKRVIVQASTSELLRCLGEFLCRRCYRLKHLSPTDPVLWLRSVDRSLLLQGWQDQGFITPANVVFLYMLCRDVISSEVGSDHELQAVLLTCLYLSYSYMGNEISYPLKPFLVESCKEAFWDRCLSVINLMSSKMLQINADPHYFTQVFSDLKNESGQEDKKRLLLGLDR

[7] = molecular target: Cyclin-dependent kinase 5/CDK5 activator 1 (Homo sapiens, UniProt Q00535); assay: Inhibitory concentration tested against Cyclin-dependent kinase 5
Sequence of Cyclin-dependent kinase 5/CDK5 activator 1 (Homo sapiens, UniProt Q00535) (Q00535 whole entry): as the sequence (Q00535 whole entry) above
Sequence of Cyclin-dependent kinase 5/CDK5 activator 1 (Homo sapiens, UniProt Q00535) (Q15078 whole entry, further chain): as the sequence (Q15078 whole entry) above

Row | SMILES | IC50 [4] [µM] | IC50 [5] [µM] | IC50 [6] | IC50 [1] [µM] | IC50 [2] [µM] | IC50 [3] [µM] | IC50 [7] [µM]
1 | CC(=O)c1cnc2oc3ccc(O)cc3c2c1-c1ccccc1 |  |  |  | > 100 | > 100 | 4.2 | 
2 | COc1cnc2oc3ccc(O)cc3c2c1-c1ccccc1 | > 100 | 80 |  |  |  | 64.3 | 6.3
3 | Oc1ccc2oc3ncc(Br)c(-c4ccccc4)c3c2c1 | 28.7 | 3.2 | Not Active |  |  | 70.7 | 

More lines, main results first:

Row | IC50 [4] [µM] | IC50 [5] [µM] | IC50 [6] | SMILES | IC50 [1] [µM] | IC50 [2] [µM] | IC50 [3] [µM] | IC50 [7] [µM]
4 | > 100 | > 100 | Not Active | Cc1cnc2oc3ccc(O)cc3c2c1-c1ccccc1 |  |  | > 100 | 
5 | > 100 | > 100 |  | CCOc1cnc2oc3ccc(O)cc3c2c1-c1ccccc1 |  |  | > 100 | 5.9
6 | > 100 | > 100 | Not Active | Oc1ccc2oc3ncc(Cl)c(-c4ccccc4)c3c2c1 |  |  | > 100 | 
